Where a name gives a salt, the structure may show the parent alone. Read-outs that look alike come from different tables or passages of the source.
How the values were obtained:
[1] = test system: acute conjunctivitis (dogs); assay: Treatment of acute conjunctivitis (dogs) by ophthalmic instillation of 0.01% TRH tartrate; assay type: in vivo, dog
Text: The following examples illustrate the treatment of a case of acute catarrhal conjunctivitis and a case of drug-induced acute conjunctivitis, by ophthalmic instillation of TRH alone.

[2] = test system: cataract (dogs); assay type: in vivo, dog
Experimental: 2, 1977. (Treatment) Starting on Feb. 28, 1977 opthalmic instillations of a 0.01% aqueous solution of free TRH were given 3 times a day. (Treatment) Starting on Aug. […] The right eye was treated simultaneously with the aqueous solution of TRH tartrate alone.

[3] = test system: progressive cataract (dogs); parameters: Evaluation: key to the marks not given beside the values; settings: for Relapse: diagnosed after 3 months
[4] = test system: cataract (dogs); assay type: in vivo, dog; remark: listed apart in the source
[5] = Case 3, left eye, with dexamethasone and flavine-adenine dinucleotide, August 20

NC(=O)[C@@H]1CCCN1C(=O)[C@H](Cc1cnc[nH]1)NC(=O)[C@@H]1CCC(=O)N1 [TRH tartrate, L-pyroglutamyl-L-histidyl-L-prolinamide]
outcome of the case ([1]; Case 1, acute catarrhal conjunctivitis): judged to have been cured
findings at examination ([1]; Case 1, acute catarrhal conjunctivitis, three instillations given every other day, 7th day after start): neither a hyperemia nor overflowing tears
findings at examination ([1]; Case 2, acute conjunctivitis due to irritation by insecticide, 2 instillations given every other day): the hyperemia had disappeared and the slightly dilated eye balls had become normal
outcome of the case ([1]; Case 2, drug-induced acute conjunctivitis): cured
pannus, left eye ([2]; Case 3, left eye (immature cortical cataract and corneitis), with 0.02% dexamethasone and 0.05% flavine-adenine dinucleotide, 5 to 6 times daily, August 20): the pannus had disappeared
ciliary congestion, left eye [2, 5]: the ciliary congestion persisted
pupillary reflex and dilation, left eye [2, 5]: satisfactory
lens clarity, right eye ([2]; Case 3, right eye, TRH tartrate solution alone, 5 to 6 times daily, August 20): increased clarity in the upper margin of the lens
lens clarity, both eyes ([2]; Case 3, TRH tartrate solution alone from September 2, September 25): significantly increased clarity
lens opacity, both eyes ([2]; Case 3, TRH tartrate solution and dexamethasone solution twice daily, September 2): only thinned opacities all over the lens
side effect at the times of instillation ([2]; dog, in vivo): No side effect was noted
day on which responses were elicited (generally, seven cases) ([3]; 0.01% aqueous solution, 3 instillations a day, eye lids pressed after instillation): third
result of first course ([3]; Case 1, 2 instillations daily for 3 consecutive days, then discontinued): apparently satisfactory
outcome of the case ([3]; Cases 1 and 2, 0.01% solution, 2 instillations daily): judged to have been cured
Evaluation ([3]; case 7, serious total cataract (bilateral), 3 instillations daily for 4 days plus TRH.corson injections on 1st and 3rd days): ++
Relapse ([3]; case 7, with adjunct TRH.corson injections): None
Evaluation ([3]; case 9, transient central cataract due to traumatic corneitis (left eye), 2 instillations daily): +++
Relapse ([3]; cases 3-6 and 8): None
reaction after each instillation (irritation to the conjunctiva) ([3]; dog, in vivo): closed the lids for a while, followed by several blinkings
pupillary reflex ([4]; Case 1, total cataract, 4 to 5 instillations daily from Feb. 2, on February 28): normal
opacity of pupillary area ([4]; Case 1, on February 28): reduced opacity
clarity of the cortex of lens (visual examination) ([4]; Case 1, on March 10): improved

NC(=O)[C@@H]1CCCN1C(=O)[C@H](Cc1cnc[nH]1)NC(=O)[C@@H]1CCC(=O)N1 [TRH, L-pyroglutamyl-L-histidyl-L-prolinamide]
lens of right eye ([2]; Case 2, senile cataract, 0.01% aqueous solution of free TRH 3 times a day from Feb. 28, on April 23): the lens cortex of the right eye was remarkably clear
lens of left eye ([2]; Case 2, 0.01% free TRH 3 times a day, on April 23): the circumstances of lens in the left eye could be delineated
side effect during the instillation period ([2]; dog, in vivo): No side effect was observed

From patent US4150120A, “Ophthalmic” (Takeda Chemical Industries, Ltd., priority 1977, dated 1979)
